Results: patent US8404930B2, “Methods for improving monocot transformation” (Pioneer Hi-Bred International, Inc., priority 2009, dated 2013)
Where “and” joins values, the source holds several entries; their conditions need not be identical. Equal entries are not always repeated. Where two headings read alike, the source gives them in different places.

Legend:
[1] = tested on: Maize inbred PHR03 immature embryos; conditions: for Transformation frequency (%): dark
Protocol: (§1) Maize inbred PHR03 immature embryos (9-13 DAP when embryo size around 0.8-2.5 mm) were infected with 5×10^8 cfu/mL Agrobacterium LBA4404 containing superbinary vector PHPMRFP in PHI-I liquid medium. The embryos were then co-cultivated on PHI-T co-cultivation media plates at 21° C. in dark conditions for 3 days. This may range from 1-7 days.
(§2) The embryos were subcultured every 2-3 weeks.
(§3) A regeneration step is followed by culturing the putative transgenic callus on PHI-RF medium plates for producing shoots and a rooting step on medium plates PHI-RR.
Transformation frequency was calculated by the number of embryos producing transgenic callus capable of regenerating plants divided by the number of embryos infected by Agrobacterium.

[2] = tested on: Sorghum line TX430 immature embryos
Protocol: (§4) Sorghum line TX430 immature embryos (9-15 DAP when embryo size around 0.8-2.5 mm) were infected with 1×10^9cfu/mL Agrobacterium LBA4404 containing superbinary vector PHPMYFP in PHI-I liquid medium. The embryos were co-cultivated on PHI-T medium plates at 25° C. (ranged 21-25° C.) in dark for 3 days (ranged 1-7 days).
The whole selection step was in dark or dim light at 28° C. After two to three months from the initiation of the experiment, transgenic callus events were cultured for plant regeneration on the same regeneration medium (PHI-RF and PHI-Z) at the regular regeneration conditions.
(§5) Transformation frequency was calculated by the number of embryos producing transgenic plants divided by the number of embryos infected by Agrobacterium.

[3] = tested on: Sorghum line TX430 immature embryos; conditions: for Transformation frequency (%): dark
Protocol: as §4
(§6) The whole selection step was in dark at 28° C. After two to three months from the initiation of the experiment, transgenic callus events were cultured for plant regeneration on the same regeneration medium (PHI-RF and PHI-Z) at the regular regeneration conditions.
Transformation frequency was calculated by the number of embryos producing transgenic plants divided by the number of embryos infected by Agrobacterium

[4] = tested on: Sorghum line TX430 immature embryos; conditions: for Transformation frequency (%): dark; remark: listed apart in the source
Protocol: as §4, §6
Transformation frequency was calculated by the number of embryos producing transgenic callus capable of regeneration divided by the number of embryos infected by Agrobacterium

[5] = tested on: Maize inbred PHR03 immature embryos; conditions: for Transformation frequency (%): dark; remark: listed apart in the source
Protocol: as §1, §2, §3, §5

[6] = tested on: Maize inbred PHR03 immature embryos; assay: Transformation frequency of maize using various light intensities (Example 18); format: cell-based; conditions: 4 μM copper in DBC3 resting and selection media
Protocol: as §1, §2
A regeneration step was followed by culturing the putative transgenic callus on PHI-RF medium plates for producing shoots and a rooting step on medium plates PHI-RR.
as §5

[7] = 0.1 μM copper (negative control) in DBC3 resting and selection media, Average of exp 1-4
[8] = 0.1 μM copper (negative control) in DBC3 resting and selection media, single experiments exp 1-4
[9] = 5 μM copper in DBC3 resting and selection media, Average of exp 1-4

O=S(=O)([O-])[O-].[Cu+2] [copper, cupric sulfate]
Transformation frequency (%) [1, 7]: 4.4%
Transformation frequency (%) [1, 8]: 2.5% and 5.0% and 7.5%
increase of transformation frequency over 0.1 μM copper ([1]; 1 μM copper and above, maize): 3-5 times
Transformation frequency (%) ([1]; 1 μM copper in DBC3 resting and selection media, Average of exp 1-4): 16.9%
Transformation frequency (%) ([1]; 1 μM copper in DBC3 resting and selection media, single experiments exp 1-4): 15% and 17.5% and 20%
Transformation frequency (%) ([1]; 4 μM copper in DBC3 resting and selection media, Average of exp 1-4): 11.9%
Transformation frequency (%) [1, 9]: 23.1%
Transformation frequency (%) ([2]; 4 μM copper in DBC3 resting and selection media, Dim light, Average of exp 1-2): 31.3%
Transformation frequency (%) ([2]; 4 μM copper in DBC3 resting and selection media, dark, Average of exp 1-2): 17.1%
Transformation frequency (%) ([2]; 5 μM copper in DBC3 resting and selection media, Dim light, Average of exp 1-2): 20.0%
Transformation frequency (%) ([2]; 5 μM copper in DBC3 resting and selection media, dark, Average of exp 1-2): 26.3%
Transformation frequency (%) ([2]; 5 μM copper in DBC3 resting and selection media, dark, single experiments exp 1-2): 27.5% and 25.0%
Transformation frequency (%) [3, 7]: 2.0%
Transformation frequency (%) [3, 8]: 3.33% and 2.50% and 0.00%
increase of transformation frequency over 0.1 μM copper ([3]; 5 μM copper and above, sorghum): 4-6 times
Transformation frequency (%) [3, 9]: 13.8%
Transformation frequency (%) ([3]; 5 μM copper in DBC3 resting and selection media, single experiments exp 1-4): 16.67% and 15.00% and 8.33%
Transformation frequency (%) ([3]; 10 μM copper in DBC3 resting and selection media, Average): 13.0%
Transformation frequency (%) ([3]; 10 μM copper in DBC3 resting and selection media, single experiments exp 1-4): 20.00% and 10.00% and 12.50%
Transformation frequency (%) ([3]; 30 μM copper in DBC3 resting and selection media, Average of exp 1-4): 8.2%
Transformation frequency (%) ([3]; 50 μM copper in DBC3 resting and selection media, Average of exp 1-4): 9.6%
Transformation frequency (%) ([3]; 50 μM copper in DBC3 resting and selection media, single experiments exp 1-4): 5.00% and 10.00% and 11.11%
Transformation frequency (%) ([4]; 0.1 μM copper in DBC3 resting and selection media, Average of exp 1-2): 10.0%
Transformation frequency (%) ([4]; 0.1 μM copper in DBC3 resting and selection media, single experiments exp 1-2): 15.0% and 5.0%
increase of transformation frequency over 0.1 μM copper ([4]; 1 μM copper and above, sorghum): two times
Transformation frequency (%) ([4]; 1 μM copper in DBC3 resting and selection media, Average of exp 1-2): 23.8%
Transformation frequency (%) ([4]; 1 μM copper in DBC3 resting and selection media, single experiments exp 1-2): 30.0% and 17.5%
Transformation frequency (%) ([4]; 4 μM copper in DBC3 resting and selection media, Average of exp 1-2): 17.1%
Transformation frequency (%) ([4]; 5 μM copper in DBC3 resting and selection media, Average of exp 1-2): 26.3%
Transformation frequency (%) ([4]; 5 μM copper in DBC3 resting and selection media, single experiments exp 1-2): 27.5% and 25.0%
Transformation frequency (%) ([5]; 0.1 μM copper (negative control) in DBC3 resting and selection media, Average of exp 1-5): 2.9%
Transformation frequency (%) ([5]; 0.1 μM copper (negative control) in DBC3 resting and selection media, single experiments exp 1-5): 5.0% and 0.0% and 10.0%
increase of transformation frequency over 0.1 μM copper ([5]; 5 μM copper and above, maize): 4-7 times
Transformation frequency (%) ([5]; 5 μM copper in DBC3 resting and selection media, Average of exp 1-5): 23.5%
Transformation frequency (%) ([5]; 10 μM copper in DBC3 resting and selection media, Average of exp 1-5): 19.0%
Transformation frequency (%) ([5]; 30 μM copper in DBC3 resting and selection media, Average of exp 1-5): 14.0%
Transformation frequency (%) ([5]; 50 μM copper in DBC3 resting and selection media, Average of exp 1-5): 21.0%
Transformation frequency (%) ([6]; Dark, single experiments exp 1-4): 10% and 17.5% and 12.5% and 7.5%
Transformation frequency (%) ([6]; Dim light, Average of exp 1-4): 17.5%
Transformation frequency (%) ([6]; dark, Average of exp 1-4): 11.9%
